Results taken from US20260200987A1, “PEPTIDE FOR CARTILAGE REGENERATION, AND USES THEREOF” (CAREGEN CO., LTD., priority 2022, published 2026).
Ends that are not written are not given here.

Columns and labels:
[1] = tested on: human adipose-derived mesenchymal stem cells (AD-MSC); assay: SRB staining, cell morphology changes; assay type: cell-based; conditions: peptide at different concentrations, FIG. 1 and FIG. 2
Protocol: Additionally, for SRB staining, after suctioning the medium from the plate, 60 μL of 3.7% formalin was added to the 96-well plate to be stained and fixed for 1 minute. After suctioning 3.7% formalin, 70 μL of SRB staining solution (sulforhodamine B sodium salt (sigma, S9012): 0.2 g in 100 mL DDW) was added and stained. The plate was covered with aluminum foil, blocked from light, and incubated overnight at room temperature. After washing with 100 μL of 1% acetic acid using a multi-pipette, it was dried and observed under a microscope.

[2] = tested on: human adipose-derived mesenchymal stem cells (AD-MSC); assay: CCK-8 assay, cytotoxicity; assay type: cell-based; conditions: after 7 days, peptide at different concentrations, FIG. 3 and FIG. 4
Protocol: Specifically, AD-MSC cells were seeded in 96-well plates at a density of 1.5×10^3 cells/well and cultured in Dulbecco's Modified Eagle's Medium (DMEM) supplemented with 10% FBS for 24 hours. Then, the medium was replaced with DMEM medium supplemented with 5% FBS, and Peptide-1 or Peptide-2 was treated at different concentrations, respectively. Subsequently, the medium was replaced every 3 days and Peptide-1 or Peptide-2 was treated at different concentrations, respectively. To confirm CCK-8 activity, after 7 days, CCK-8 (Dojindo, CCK-8 kit) solution was added at 1/10 volume of the culture medium, and incubated for 2 hours. The culture medium was sampled and CCK-8 activity was confirmed at a wavelength of 450 nm using a microplate reader.

FCRPRNDFF [Peptide-2, FCRPRNDFF]
change in cell morphology in SRB staining [1]: did not show any change in cell morphology
toxicity toward adipose-derived mesenchymal stem cells (CCK-8 activity) [2]: did not exhibit toxicity

RIAFLWVRIK [Peptide-1, RIAFLWVRIK]
change in cell morphology in SRB staining [1]: did not show any change in cell morphology
toxicity toward adipose-derived mesenchymal stem cells (CCK-8 activity) [2]: did not exhibit toxicity
